Assay [1] deals with 5-hydroxytryptamine receptor 2A (Homo sapiens) (UniProt P28223). Kind of assay: Displacement of [125I]DOI from human 5-HT2A receptor expressed in HEK293 cell membrane assessed as inhibition of radioligand binding at 100 nM incubated for 60 mins by competition binding based scintillation counter analysis relative to control. It is filed as cell membranes. For orientation: Loss of bound radioactivity is the signal in a displacement assay; it reports binding, not function.

For assay [2], the target named is D(1A) dopamine receptor (Homo sapiens) (UniProt P21728). Kind of assay: Displacement of [3H]SCH-23390 from human dopamine D1 receptor expressed in CHO cell membrane assessed as inhibition of radioligand binding at 100 nM incubated for 60 mins by competition binding based scintillation counter analysis relative to control. It counts as cell membranes.
Sequence of D(1A) dopamine receptor (Homo sapiens) (P21728 whole entry): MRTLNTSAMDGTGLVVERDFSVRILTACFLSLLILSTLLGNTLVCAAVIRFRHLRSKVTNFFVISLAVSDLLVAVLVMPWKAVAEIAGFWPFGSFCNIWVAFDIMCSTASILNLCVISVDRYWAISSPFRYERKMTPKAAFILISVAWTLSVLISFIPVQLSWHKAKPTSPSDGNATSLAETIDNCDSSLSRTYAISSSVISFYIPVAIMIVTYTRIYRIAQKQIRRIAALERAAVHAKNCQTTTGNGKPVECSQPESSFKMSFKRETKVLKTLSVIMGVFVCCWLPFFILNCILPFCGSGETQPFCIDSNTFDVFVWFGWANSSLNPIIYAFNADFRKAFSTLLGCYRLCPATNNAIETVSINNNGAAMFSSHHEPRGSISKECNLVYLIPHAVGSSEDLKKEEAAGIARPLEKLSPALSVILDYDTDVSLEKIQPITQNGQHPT
For assay [3], the target named is D(2) dopamine receptor (Homo sapiens) (UniProt P14416). Kind of assay: Displacement of [3H]7-OH-DPAT from human dopamine D2 receptor expressed in HEK293 cell membrane assessed as inhibition of radioligand binding at 100 nM incubated for 60 mins by competition binding based scintillation counter analysis relative to control. It counts as cell membranes.
Sequence of D(2) dopamine receptor (Homo sapiens) (P14416 whole entry): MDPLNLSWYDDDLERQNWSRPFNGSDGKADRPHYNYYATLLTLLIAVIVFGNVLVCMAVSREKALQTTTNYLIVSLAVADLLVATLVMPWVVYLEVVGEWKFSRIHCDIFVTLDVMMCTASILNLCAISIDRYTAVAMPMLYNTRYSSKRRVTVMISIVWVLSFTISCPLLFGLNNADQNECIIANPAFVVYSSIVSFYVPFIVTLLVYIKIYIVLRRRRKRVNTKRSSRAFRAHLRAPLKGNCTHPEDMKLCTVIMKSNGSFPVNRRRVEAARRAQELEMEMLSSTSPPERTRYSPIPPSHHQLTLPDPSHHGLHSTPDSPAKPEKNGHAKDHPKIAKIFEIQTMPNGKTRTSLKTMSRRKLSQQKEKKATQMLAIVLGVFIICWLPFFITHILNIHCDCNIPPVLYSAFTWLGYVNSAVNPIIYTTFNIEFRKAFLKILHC
The target in assay [4] is T1, Alpha-1A adrenergic receptor (Homo sapiens) (UniProt P35348).
T1 sequence (whole entry): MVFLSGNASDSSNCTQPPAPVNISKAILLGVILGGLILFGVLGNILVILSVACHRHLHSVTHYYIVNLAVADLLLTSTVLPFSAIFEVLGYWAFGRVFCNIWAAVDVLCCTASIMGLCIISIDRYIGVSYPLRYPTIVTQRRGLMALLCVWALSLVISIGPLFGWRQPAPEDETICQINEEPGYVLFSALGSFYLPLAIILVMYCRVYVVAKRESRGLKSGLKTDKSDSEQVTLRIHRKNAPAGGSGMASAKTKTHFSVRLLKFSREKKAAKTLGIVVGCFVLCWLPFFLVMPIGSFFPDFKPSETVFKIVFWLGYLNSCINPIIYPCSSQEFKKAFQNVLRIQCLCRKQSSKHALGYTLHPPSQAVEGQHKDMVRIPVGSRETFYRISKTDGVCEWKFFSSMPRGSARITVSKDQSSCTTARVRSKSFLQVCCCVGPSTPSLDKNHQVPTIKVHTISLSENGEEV
Kind of assay: Antagonist activity at human alpha 1A adrenergic receptor expressed in CHO-K1 cells assessed as inhibition of phenylephrine induced […] calcium response at <= 10 uM by whole cell-based assay. It counts as functional. Conditions: filed as antagonist.

Assay [5] concerns the target Sodium-dependent serotonin transporter (Homo sapiens) (UniProt P31645). The assay can be described thus: Displacement of [3H]-imipramine from human 5-HT transporter expressed in CHO cell membrane assessed as inhibition of radioligand binding at 100 nM incubated for 60 mins by competition binding based scintillation counter analysis relative to control. It counts as cell membranes.

Assay [6] relates to Mus musculus. Kind of assay: Analgesic activity against formalin-induced inflammatory pain C57Bl/6 mouse model assessed as reduction in licking response at 5 mg/kg,SC pretreated for 30 min followed by formalin challenge and measured after 30 mins. Conditions: time 60.0 min. It is filed as functional, organism-based.
For assay [7], the system named is Mus musculus. Kind of assay: Analgesic activity in thermal stimulated CD-1 mouse assessed as increase in latency to pain response at 5 mg/kg,SC administration measured after 30 mins by tail flick assay. It is filed as functional, organism-based. (In general: Thermal pain tests record how soon the animal reacts.)
Assay [8] has as its system Mus musculus. The assay can be described thus: Analgesic activity in naloxone induced CD-1 mouse assessed as increase in latency to pain response at 5 mg/kg,po administration measured after 30 mins by tail flick assay. It is filed as functional, organism-based.
Assay [9] addresses Sodium-dependent serotonin transporter (Homo sapiens) (UniProt P31645). Kind of assay: Displacement of [3H]-imipramine from human 5-HT transporter expressed in CHO cell membrane assessed as inhibition of radioligand binding at 200 nM incubated for 60 mins by competition binding based scintillation counter analysis relative to control. It counts as cell membranes.

The source made the active and inactive calls. No cut-off for these calls is given here.

Sequence of Sodium-dependent serotonin transporter (Homo sapiens) (P31645 whole entry, looked up): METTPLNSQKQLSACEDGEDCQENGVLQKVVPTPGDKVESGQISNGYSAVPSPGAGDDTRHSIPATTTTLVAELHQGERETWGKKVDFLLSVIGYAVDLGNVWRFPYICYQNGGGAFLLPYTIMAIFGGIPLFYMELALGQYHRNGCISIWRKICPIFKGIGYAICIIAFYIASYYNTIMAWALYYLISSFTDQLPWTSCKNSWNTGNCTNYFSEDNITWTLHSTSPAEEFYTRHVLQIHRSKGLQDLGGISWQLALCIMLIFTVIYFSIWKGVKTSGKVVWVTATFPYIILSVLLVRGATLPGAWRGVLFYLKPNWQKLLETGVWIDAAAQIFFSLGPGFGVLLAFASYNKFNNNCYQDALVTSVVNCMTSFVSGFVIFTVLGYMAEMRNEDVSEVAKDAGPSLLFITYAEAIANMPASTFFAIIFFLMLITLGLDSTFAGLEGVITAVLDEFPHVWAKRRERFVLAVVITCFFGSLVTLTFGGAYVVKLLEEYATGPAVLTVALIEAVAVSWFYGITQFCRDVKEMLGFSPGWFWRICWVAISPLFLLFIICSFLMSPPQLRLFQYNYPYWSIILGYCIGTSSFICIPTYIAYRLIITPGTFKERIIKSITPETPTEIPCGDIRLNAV
Sequence of 5-hydroxytryptamine receptor 2A (Homo sapiens) (P28223 whole entry): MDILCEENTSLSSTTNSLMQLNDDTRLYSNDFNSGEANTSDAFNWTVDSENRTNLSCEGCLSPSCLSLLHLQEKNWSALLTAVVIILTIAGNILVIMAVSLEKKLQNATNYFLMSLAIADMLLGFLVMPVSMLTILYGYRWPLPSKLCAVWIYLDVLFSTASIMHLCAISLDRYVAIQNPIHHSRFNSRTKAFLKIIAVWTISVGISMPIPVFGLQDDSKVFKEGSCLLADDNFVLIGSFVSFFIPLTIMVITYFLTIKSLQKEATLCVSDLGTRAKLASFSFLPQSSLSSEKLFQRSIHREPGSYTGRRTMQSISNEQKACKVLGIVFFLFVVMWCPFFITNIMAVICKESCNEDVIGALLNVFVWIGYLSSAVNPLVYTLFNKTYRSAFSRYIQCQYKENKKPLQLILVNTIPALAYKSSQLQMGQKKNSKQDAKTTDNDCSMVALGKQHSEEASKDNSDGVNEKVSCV

Turning to `COc1ccc(OCCCN2CC[C@H]3[C@@H](C2)c2cccc4c2N3CC(=O)N4)cc1`, the inhibition result in [1] and in assay [2] was “inactive” each time.

For the compound `NC(=O)c1cc(F)ccc1OCCCN1CC[C@H]2[C@@H](C1)c1cccc3c1N2CC(=O)N3`, the inhibition entry in assay [2] and in assay [3] was “inactive” throughout.

Regarding `O=C1CN2c3c(cccc3[C@@H]3CN(CCCOc4ccc(F)cc4)CC[C@@H]32)N1`, the outcome in [4] was Active.

As to `O=C1CN2c3c(cccc3[C@@H]3CN(CCCO)CC[C@@H]32)N1`, the inhibition result in assay [2], in [3] and in assay [5] was “inactive” each time.

For the compound `O=C1CN2c3c(cccc3[C@@H]3CN(CCOc4ccc(F)cc4)CC[C@@H]32)N1`, in assay [5], the inhibition result is “inactive”.

Regarding `O=C1CN2c3c(cccc3[C@@H]3CN(CCCCOc4ccc(F)cc4)CC[C@@H]32)N1`, the inhibition result in assay [5] was “inactive”.

In the case of `CCCCN1CC[C@H]2[C@@H](C1)c1cccc3c1N2CC(=O)N3`, the inhibition entry in assay [1], in [2] and in assay [5] was “inactive” each time.

For `O=C1CN2c3c(cccc3[C@@H]3CN(CCCOc4ccc(O)cc4)CC[C@@H]32)N1`, the inhibition result in [2] was “inactive”.

As to `Cc1cc(F)cc(C)c1OCCCN1CC[C@H]2[C@@H](C1)c1cccc3c1N2CC(=O)N3`, the inhibition entry in assay [2] and in assay [3] was “inactive” each time.

`CN1CC[C@]23c4c5ccc(O)c4O[C@H]2[C@@H](O)C=C[C@H]3[C@H]1C5`: the result in assay [6] and in [7] was Active. For the same compound, in [8], the result was inactive.

On to `O=C1CN2c3c(cccc3[C@@H]3CN(CCCS(=O)(=O)c4ccc(F)cc4)CC[C@@H]32)N1`, for which the inhibition entry in assay [9], in assay [2] and in assay [3] was “inactive” each time.

On to `O=C1CN2c3c(cccc3[C@@H]3CN(CCCOc4ccc(Br)cc4)CC[C@@H]32)N1`, for which the inhibition result in assay [2] is “inactive”.

In the case of `O=C1CN2c3c(cccc3[C@@H]3CN(CCCOc4ccc5c(c4)OCO5)CC[C@@H]32)N1`, the inhibition result in assay [1] and in assay [2] was “inactive” each time.

Regarding `CC1C(=O)Nc2cccc3c2N1[C@H]1CCN(CCCOc2ccc(F)cc2)C[C@@H]31` (stereo partly specified), the inhibition result in assay [5] was “inactive”.

The values above are taken from ChEMBL document CHEMBL5506064, “Discovery of ITI-333, a Novel Orally Bioavailable Molecule Targeting Multiple Receptors for the Treatment of Pain and Other Disorders” (J Med Chem, 2024).
